Here are results for 18 compounds from PMC6274368 (Molecules, 2016).

Each structure is given as a SMILES string.

In one series the target is T1, human URAT1 (Homo sapiens, UniProt Q96S37).
T1 sequence (Q96S37 1-553): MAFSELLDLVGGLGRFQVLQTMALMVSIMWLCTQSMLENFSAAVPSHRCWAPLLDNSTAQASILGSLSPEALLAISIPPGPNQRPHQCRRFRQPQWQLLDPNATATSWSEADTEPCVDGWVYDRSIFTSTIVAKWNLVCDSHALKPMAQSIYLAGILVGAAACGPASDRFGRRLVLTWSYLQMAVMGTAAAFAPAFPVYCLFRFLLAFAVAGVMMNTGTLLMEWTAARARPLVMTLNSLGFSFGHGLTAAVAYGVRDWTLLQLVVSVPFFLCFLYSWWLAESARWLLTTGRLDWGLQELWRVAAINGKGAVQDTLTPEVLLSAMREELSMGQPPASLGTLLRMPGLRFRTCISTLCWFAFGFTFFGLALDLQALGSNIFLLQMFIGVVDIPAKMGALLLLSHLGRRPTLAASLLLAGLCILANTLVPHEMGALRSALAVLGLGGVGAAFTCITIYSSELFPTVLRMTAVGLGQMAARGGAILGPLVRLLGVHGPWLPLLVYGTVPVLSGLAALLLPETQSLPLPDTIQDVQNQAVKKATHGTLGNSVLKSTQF
To be noted: for Fold more potent than parent lesinurad (URAT1 inhibition): ratio of IC50 vs lesinurad, in vitro URAT1 inhibitory assay.

Experimental for human URAT1: After 48 h, when the HEK293-URAT1 cells were grown to confluence, the cells were treated by 0.25% trypsin for 1–2 min. Thereafter, the digested cells were diluted to a density of 1.5 × 10^5/mL and inoculated into the 24-well cell culture plates for about 48 h. The HEK293-URAT1 cells were pre-incubated for 10 min in HBSS (Cl^− free) and then incubated in the uptake solution (PBS) containing 5 μM [8-^14C]uric acid (2 μCi/mL) with or without the tested compounds (at a series of concentrations). […] After that, 500 μL of cell lysis was transferred to scintillation vials and solubilized with scintillation solution. The radioactivity in the cells was measured by a liquid scintillation counter (PerkinElmer, Waltham, MA, USA).

In general, melting point refers to the temperature of the solid-liquid transition. By IC50 is commonly meant the concentration needed to halve the response being measured. As to `O=C([O-])CCc1nnc(Cl)n1-c1ccc(C2CC2)c2ccccc12.[Na+]` [Compound 1b, Sodium 3-(5-chloro-4-(4-cyclopropylnaphth-1-yl)-4H-1,2,4-triazol-3-yl)propionate], the melting point was 135 °C (dec.). At human URAT1, this compound had an IC50 of 6.3 ± 0.74 µM. With `CCOc1ccc(-n2c(Br)nnc2CCC(=O)[O-])c2ccccc12.[Na+]` [Compound 1m, Sodium 3-(5-bromo-4-(4-ethoxynaphth-1-yl)-4H-1,2,4-triazol-3-yl)propionate], the melting point is 194 °C (dec.). Further, on human URAT1, the IC50 turned out to be 11.2 ± 1.3 µM.

With `O=C([O-])CCc1nncn1-c1ccc(C2CC2)c2ccccc12.[Na+]` [Compound 1a, Sodium 3-(4-(4-cyclopropylnaphth-1-yl)-4H-1,2,4-triazol-3-yl)propionate], the melting point was 140 °C (dec.). This compound yielded an IC50 at human URAT1 of more than 100 µM. The matching figures for `O=C([O-])CCc1nnc(I)n1-c1ccc(C2CC2)c2ccccc12.[Na+]` [Compound 1d, Sodium 3-(4-(4-cyclopropylnaphth-1-yl)-5-iodo-4H-1,2,4-triazol-3-yl)propionate]: 158 °C (dec.) and 8.8 ± 1 µM. The matching figures for `CCc1ccc(-n2c(Br)nnc2CCC(=O)[O-])c2ccccc12.[Na+]` [Compound 1i, Sodium 3-(5-bromo-4-(4-ethylnaphth-1-yl)-4H-1,2,4-triazol-3-yl)propionate]: 198 °C (dec.) and 8.4 ± 0.98 µM. Taken in the same sequence, the figures for `CCOc1nnc(CCC(=O)[O-])n1-c1ccc(C2CC2)c2ccccc12.[Na+]` [Compound 1f, Sodium 3-(4-(4-cyclopropylnaphth-1-yl)-5-ethoxy-4H-1,2,4-triazol-3-yl)propionate] were 101.5 °C (dec.) and 9.1 ± 1.2 µM. With `COc1ccc(-n2c(Br)nnc2CCC(=O)[O-])c2ccccc12.[Na+]` [Compound 1l, Sodium 3-(5-bromo-4-(4-methoxynaphth-1-yl)-4H-1,2,4-triazol-3-yl)propionate], the melting point is 211 °C (dec.). This compound also showed an IC50 against human URAT1 of 36.6 ± 5.3 µM. On to `Cc1ccc(-n2c(Br)nnc2CCC(=O)[O-])c2ccccc12.[Na+]` [Compound 1h, Sodium 3-(5-bromo-4-(4-methylnaphth-1-yl)-4H-1,2,4-triazol-3-yl)propionate], for which the melting point is 155 °C (dec.). 12.6 ± 1.6 µM corresponded to half-maximal inhibition on human URAT1 (IC50). For the compound `O=C(O)CCc1nnc(Br)n1Cc1ccc(Br)c2ccccc12` [Compound 1o, Sodium 3-(5-bromo-4-((4-bromonaphth-1-yl)methyl)-4H-1,2,4-triazol-3-yl)propionate], 0.61 ± 0.07 µM corresponded to half-maximal inhibition on human URAT1 (IC50).

With `O=C([O-])CCc1nnc(Br)n1-c1ccc(C2CC2)c2ccccc12.[Na+]` [Compound 1c, Sodium 3-(5-bromo-4-(4-cyclopropylnaphth-1-yl)-4H-1,2,4-triazol-3-yl)propionate], at human URAT1, the IC50 came to 2.4 ± 0.15 µM and the “Fold more potent than parent lesinurad (URAT1 inhibition)” value is “three”.

As for `CC(C)c1ccc(-n2c(Br)nnc2CCC(=O)[O-])c2ccccc12.[Na+]` [Compound 1k, Sodium 3-(5-bromo-4-(4-isopropylnaphth-1-yl)-4H-1,2,4-triazol-3-yl)propionate], the melting point was 194 °C (dec.). This compound also came in with an IC50 against human URAT1 of 1.1 ± 0.21 µM. On to `COc1nnc(CCC(=O)[O-])n1-c1ccc(C2CC2)c2ccccc12.[Na+]` [Compound 1e, Sodium 3-(4-(4-cyclopropylnaphth-1-yl)-5-methoxy-4H-1,2,4-triazol-3-yl)propionate], for which the melting point is 133 °C (dec.). Besides, the IC50 against human URAT1 was more than 100 µM. As to `O=C([O-])CCc1nnc(Br)n1CCc1ccc(Br)c2ccccc12.[Na+]` [Compound 1p, Sodium 3-(5-bromo-4-(2-(4-bromonaphth-1-yl)ethyl)-4H-1,2,4-triazol-3-yl)propionate], the melting point is 167 °C (dec.). Besides, the midpoint of inhibition at human URAT1, the IC50, lay at 34.7 ± 4.9 µM. As for `O=C([O-])CCCc1nnc(Br)n1Cc1ccc(Br)c2ccccc12.[Na+]` [Compound 1q, Sodium 4-(5-bromo-4-((4-bromonaphth-1-yl)methyl)-4H-1,2,4-triazol-3-yl)butanoate], on human URAT1, 0.23 ± 0.05 µM corresponded to half-maximal inhibition (IC50) and the “Fold more potent than parent lesinurad (URAT1 inhibition)” value is reported as 31 fold. `O=C([O-])CCCCc1nnc(Br)n1Cc1ccc(Br)c2ccccc12.[Na+]` [Compound 1r, Sodium 5-(5-bromo-4-((4-bromonaphth-1-yl)methyl)-4H-1,2,4-triazol-3-yl)pentanoate]: the melting point was 146 to 149 °C. Moreover, on human URAT1, the IC50 came to 1.24 ± 0.17 µM. On to `CCCc1ccc(-n2c(Br)nnc2CCC(=O)[O-])c2ccccc12.[Na+]` [Compound 1j, Sodium 3-(5-bromo-4-(4-n-propylnaphth-1-yl)-4H-1,2,4-triazol-3-yl)propionate], for which the melting point was 183 °C (dec.). The compound further yielded an IC50 against human URAT1 of 8.3 ± 1.1 µM.

On to `O=C([O-])CCc1nnc(Br)n1-c1cccc2ccccc12.[Na+]` [Compound 1g, Sodium 3-(5-bromo-4-(naphth-1-yl)-4H-1,2,4-triazol-3-yl)propionate], for which the melting point lay within 182 to 184 °C. The IC50 at human URAT1 came to 10.5 ± 1.4 µM.

For `O=C([O-])CCc1nnc(Br)n1-c1ccc(Br)c2ccccc12.[Na+]` [Compound 1n, Sodium 3-(5-bromo-4-(4-bromonaphth-1-yl)-4H-1,2,4-triazol-3-yl)propionate], the melting point is 204 °C (dec.). Moreover, half-maximal inhibition on human URAT1 (IC50) was put at 0.85 ± 0.12 µM.
